From patent US11530196B2, “Pyrimidine compound acting on EGFR and ERBB2” (CHINA RESOURCES PHARMACEUTICAL HOLDINGS COMPANY LIMITED, priority 2019, dated 2022) come the findings set out here.

SMILES strings stand for the structures.

In assay [1] the test system is HuPrime lung cancer LU0387 subcutaneous xenograft tumor. In words: HuPrime lung cancer LU0387 subcutaneous xenograft BALB/c nude mouse model. The class given is in vivo, BALB/c Nude mice. Here is the method: The antitumor effects of the test drug in HuPrime® lung cancer LU0387 subcutaneous xenograft BALB/C nude mouse were evaluated.
BALB/c Nude mice, female, 7-8 weeks, HuPrime® lung cancer xenograft model LU0387 tumor-bearing mouse tumor tissue.
BALB/c nude mice were subcutaneously inoculated with HuPrime® model LU0387 tumor blocks to establish a human lung cancer subcutaneous transplantation tumor model. The test was divided into a solvent control group and a test drug group. The drug was administered by gavage, once daily for 21 days. Efficacy was evaluated based on relative tumor inhibition rate (TGI), and the safety was evaluated based on animal weight change and mortality.
(§1) Tumor diameters were measured with vernier calipers twice a week. The calculation formula of tumor volume was: V=0.5a×b^2, wherein a and b represented the long and short diameters of the tumor, respectively.
(§2) The antitumor efficacy of the compounds was evaluated by TGI (%) or relative tumor proliferation rate T/C (%).
(§3) Relative tumor proliferation rate T/C (%)=TRTV/CRTV×100% (TRTV: mean RTV in the treatment group; CRTV: mean RTV in the solvent control group).
(§4) The relative tumor volume (RTV) was calculated according to the results of tumor measurement. The calculation formula was RTV=Vt/V0, wherein V0 was the tumor volume measured at the time of group administration (i.e., D0), and Vt was the tumor volume corresponding to a certain measurement. TRTV and CRTV were taken on the same day.
(§5) TGI (%), reflecting the tumor growth inhibition rate. TGI (%)=[(1−(average tumor volume at the end of administration of a treatment group−average tumor volume at the beginning of administration of this treatment group))/(average tumor volume at the end of treatment in the solvent control group−average tumor volume at the beginning of treatment of the solvent control group)]×100%.

In assay [2] the target is BaF3 ERBB2 A775_G776 ins YVMA (Homo sapiens, UniProt P04626, DUP772-775, cells depend on it). In words: Anti-proliferation against Ba/F3 exon 20 insertion mutant cells (ERBB2 YVMA). In kind it is cell-based, mouse. The following applies: CTG, 72 hours, read-out: Mutant cells IC50 (anti-proliferation). An excerpt: RPMI1640 medium was purchased from Hyclone, FBS fetal bovine serum was purchased from GBICO, and trypsin-EDTA were both purchased from Giboco. DPBS was purchased from Corning, penicillin/streptomycin solution was purchased from Hyclone, and Cell-Titer Glo reagent was purchased from Promega (Cat. No. G7572). Ba/F3 EGFR-D770_N771insSVD, Ba/F3 EGFR-H773_V774insNPH, Ba/F3 EGFR-V769_D770insASV, BaF3 ERBB2 A775_G776 ins YVMA, the cell lines were constructed by Beijing Kang Yuan Bochuang Biotechnology Co., Ltd. Plate reading instrument: Envision (PerkinElmer).
Chain of BaF3 ERBB2 A775_G776 ins YVMA (P04626 with tags, fused parts or gaps DUP772-775): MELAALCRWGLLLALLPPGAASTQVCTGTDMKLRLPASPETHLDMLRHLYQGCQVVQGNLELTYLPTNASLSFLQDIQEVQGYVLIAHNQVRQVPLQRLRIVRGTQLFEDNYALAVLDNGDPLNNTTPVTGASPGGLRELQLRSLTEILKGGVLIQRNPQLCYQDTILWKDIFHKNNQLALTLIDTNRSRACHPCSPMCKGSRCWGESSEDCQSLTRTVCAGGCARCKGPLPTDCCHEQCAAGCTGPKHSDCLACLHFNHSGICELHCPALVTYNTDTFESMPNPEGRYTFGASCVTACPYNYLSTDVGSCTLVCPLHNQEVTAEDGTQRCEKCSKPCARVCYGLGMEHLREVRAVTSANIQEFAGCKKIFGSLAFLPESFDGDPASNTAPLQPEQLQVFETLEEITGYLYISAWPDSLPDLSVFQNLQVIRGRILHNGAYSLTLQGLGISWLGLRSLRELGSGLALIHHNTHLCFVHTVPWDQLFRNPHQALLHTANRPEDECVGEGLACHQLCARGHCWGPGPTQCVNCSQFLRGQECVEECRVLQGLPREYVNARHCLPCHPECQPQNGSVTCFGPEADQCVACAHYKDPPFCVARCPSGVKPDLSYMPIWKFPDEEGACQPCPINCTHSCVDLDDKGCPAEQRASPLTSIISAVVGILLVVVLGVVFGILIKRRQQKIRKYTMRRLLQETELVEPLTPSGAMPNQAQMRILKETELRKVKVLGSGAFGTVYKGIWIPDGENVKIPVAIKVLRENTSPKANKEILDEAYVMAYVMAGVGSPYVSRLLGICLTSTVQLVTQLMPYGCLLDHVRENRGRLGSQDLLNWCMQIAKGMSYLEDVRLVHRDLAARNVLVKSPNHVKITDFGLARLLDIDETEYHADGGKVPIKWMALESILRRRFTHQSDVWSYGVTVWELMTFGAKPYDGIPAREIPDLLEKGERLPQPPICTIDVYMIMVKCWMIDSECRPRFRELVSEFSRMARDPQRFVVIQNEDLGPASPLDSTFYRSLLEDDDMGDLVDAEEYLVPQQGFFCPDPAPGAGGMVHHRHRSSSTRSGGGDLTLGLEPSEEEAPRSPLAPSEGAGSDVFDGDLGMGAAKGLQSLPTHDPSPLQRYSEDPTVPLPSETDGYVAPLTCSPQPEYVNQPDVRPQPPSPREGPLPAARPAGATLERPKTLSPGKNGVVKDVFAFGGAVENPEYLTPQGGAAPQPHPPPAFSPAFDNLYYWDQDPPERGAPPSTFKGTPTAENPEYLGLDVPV
Cells in logarithmic growth phase were harvested and cell counts were performed using a […]. Cell viability was detected by the Taipan Blue rejection assay. The cell concentration was adjusted; the cell suspension was added to a 96-well plate separately. Cells in 96-well plates were incubated overnight at 37° C., 5% CO2, and 95% humidity. […] The cell plate was placed at room temperature to stabilize the cold light signal, and the cold light values were read. The data were analyzed using GraphPad Prism 7.0 software, and a nonlinear S-curve regression was used to fit the data to derive the dose-effect curve from which the IC50 values were calculated. […]

The subject of assay [3] is Ba/F3 (EGFR-D770_N771insSVD) subcutaneous allograft tumor. The experiment in a line: Ba/F3 EGFR D770_N771 ins SVD subcutaneous allograft tumor model. In kind it is in vivo, Nude mouse (BALB/c Nude). Here is the method:
Ba/F3 (EGFR-D770_N771insSVD) cells were artificially constructed cell lines with EGFR-D770_N771insSVD insertion mutation using mouse B cells. The CDX model established by this cell line was used to evaluate the inhibitory effect of preferred compounds on Exon 20 EGFR-D770_N771insSVD insertion mutation in animals.
Nude mouse (BALB/c Nude), Ba/F3 (EGFR-D770_N771insSVD) cell line
1. Cell culture: cells were cultured in vitro in monolayer, culture conditions were RPMI-1640 (cell culture medium) with 10% fetal bovine serum, 100 U/mL penicillin and 100 µg/mL streptomycin, the cells were cultured at a 37° C., 5% CO2 incubator. Conventional digestion with trypsin-EDTA was performed twice a week for passage. When the saturation of Ba/F3 (EGFR-D770_N771insSVD) cell was 80%-90%, and the number reached the requirement, the cells were harvested and counted. The density was 5×10^6 cells.
2. Cell inoculation: 0.2 mL (containing 5×10^6 cells) of Ba/F3 (EGFR-D770_N771insSVD) cell suspension (PBS:Matrigel=1:1) was inoculated subcutaneously on the right back of each mouse, for a total of 64 mice. On the 7th day after inoculation, when the average tumor volume reached 133 mm^3, the randomized stratified grouping method was used to start the grouping administration according to the tumor volume and animal weight. PBS was phosphate buffer and Matrigel was matrix.
3. Administration: The dose was 0-7 days: 10 mg/kg, 8-21 days: 40 mg/kg; oral administration; administration frequency: once a day×3 weeks.
as §1, §2, §3, §4, §5

[4] abbreviates: Day 14, oral once a day, 0-7 days 10 mg/kg, 8-21 days 40 mg/kg.

Turning to `C=CC(=O)Nc1cc(Nc2ncc(C(=O)OC(C)C)c(-c3cn(OC)c4ccccc34)n2)c(OC)cc1N(C)CCN(C)C.CS(=O)(=O)O` [Compound 1], the “Tumor volume (Day 0)” value in assay [1] (Day 0, mean ± standard error, n = 6) is 122.13 ± 3.12 mm^3. Also, in assay [1] (Day 20, gavage once daily), the RTV came out at 0.14 ± 0.08, the T/C is on record as 2%, the TGI amounted to 114% and the “Tumor volume (Day 20)” value came out at 16.97 ± 10.54 mm^3. Moreover, the GI50 in assay [2] worked out at 37 nM. Also, in assay [3] (Day 0 (grouping), mean ± standard error, n = 6), the “Tumor volume (Day 0)” value came to 133.2 ± 8.2 mm^3. In assay [3] (setting [4]), the RTV amounted to 1.9, the T/C was 14.9%, the TGI amounted to 92.1% and the “Tumor volume (Day 14)” value is reported as 259.1 ± 35.2 mm^3.

By T/C is commonly meant the ratio of treated to control.
